Assay results: patent US20220267394A1, “COMPOUNDS FOR INDUCING TISSUE FORMATION AND USES THEREOF” (HISTIDE AG, priority 2015, published 2022)
Where no end group is shown, it is not given here.

System: hMSCs
Test: Loss of stemness: STRO-1 expression by immunostaining
Format: cell-based, human
Experimental: The cells were first fixed for 20 min with 4% paraformaldehyde/PBS at 4° C. After fixation, the cells were permeabilized in PBS containing 1% Triton X-100 for 15 min. Runx2, Osterix, Stro-1, Vinculin, Phalloidin, Osteopontin, Sox2, Sox9 antibodies were visualized by treating the cells with 1% (v/v) specific monoclonal antibodies for 1 hour at 37° C. Then the samples were incubated with Alexa Fluor® 568 or 647 (F(ab′)2 fragment of IgG(H+L)) during 30 min at room temperature. The cell nuclei were counterstained in 20 ng/mL DAPI for 10 min at room temperature.
For this type of quantification the freeware image analysis ImageJ® software was used. The raw image was first converted to an 8-bit file, and then the unsharp mask feature was used (settings 1:0.2) to remove the image background (rolling ball radius 10). After smoothing, the resulting image, which appears similar to the original photomicrograph but with minimal background, was then converted to a binary image by setting a threshold. Threshold values were determined empirically by selecting a setting, which gave the most accurate binary image for a subset of randomly selected photomicrographs. The cell area was determined by manual delineation on raw fluorescent images. Total contact area and mean contact area per cell were calculated by “analyse particules” in ImageJ®. A minimum of 30 cells per condition were analyzed. Stro-1, CD-34+, and CD-105 expressions were determined using this procedure.
hMSCs were cultured on conventional cell culture plastic plates with or without the presence in the cell culture media of different GFR-binding compounds as described herein (SEQ ID NO: 50 to 88) in solution. […] This was probed by Stro-1 immunostaining after cell fixation as described in the Methods section. The quantification of Stro-1 positive contact numbers and areas was performed as described in the Methods section. A minimum of 30 cells per condition were analyzed. Stro-1 positive marrow cells are multipotential and capable of differentiating into multiple mesenchymal lineages including stromal cells with a phenotype resembling vascular smooth muscle cells that can support hematopoiesis, adipocytes, osteoblasts, and chondrocytes.
Using the method detailed in the description, the RMSD of 57 previously reported peptide sequences have been determined (Table 6) and correlated with the expression of STRO-1 in solution. […] One should note that it is commonly admitted that the expression of STRO-1 in a cell is indicative of a cell that is in a substantially non-differentiated state and the decrease of its expression of at least about 20% is indicative of a cell that has started a process of differentiation but which may not result in the differentiation of the cell. A decrease of more than 50% would be indicative of the presence of a significant shift towards a differentiated state. A decrease of more than 70% would be indicative of the presence of a very important shift towards a differentiated state. A sustained decrease (e.g. for at least 96 h) of more than 50% or 70% would be indicative of the presence of an even more important shift towards a differentiated state.
Likewise, using the method detailed in the description, the RMSD of 75 GFR-binding peptide sequence representatives of the invention have been determined (Table 8) and correlated with the expression of STRO-1. SEQ ID NO: 1 to 49 were tested in combination with a bioactive carrier as defined above in the Examples Section (i.e. titanium, ceramics, collagen, etc. . . . ), whereas SEQ ID NO: 2242 to 2267 were tested in solution.

[1] = Table 8, SEQ ID NO: 1 to 49 tested in combination with a bioactive carrier (titanium, ceramics, collagen, etc.)
[2] = Table 8, SEQ ID NO: 2242 to 2267 tested in solution
[3] = Table 6, previously reported peptides in solution, 400 ng/mL

Row | Substance | STRO-1 expression (%) [1] [%] | STRO-1 expression (%) [3] [%] | further results
1 | 12 (CKVPKASSVPTELSAISTLYLAAAALKNYQEM; GFR-binding peptide) [compound 12] | 28 |  | 
2 | 20 (CKVGKASSVPTKLNAISTLYLDDSSNVILKNYQ; not fully specified; ends and bridges not checked) [compound 20] | 18 |  | 
3 | 36 (CKIPKASSVPTELEPLPIVYYVGRKPKVEQLSNMIVRS; not fully specified; ends and bridges not checked) [compound 36] | 19 |  | 
4 | 10 (CPSSAPTQLSATSVLYYDDSSNVILRKHRQHNK; GFR-binding peptide) [compound 10] | 19 |  | 
5 | 2264 (KIPKASSVPQELEPLPIVYYDENEKVVEQLSNDMVRSGSGSR; GFR-binding peptide) [compound 2264] |  |  | STRO-1 expression (%) [2]: 24%
6 | 13 (CSIPKASSVPTELSATSVLYYDEYDEKVVLRKHEMVVEG; not fully specified; ends and bridges not checked) [compound 13] | 23 |  | 
7 | 2165 (LMDLARMPSCLRGERAVPQDTTGYFTWSSNITPLNFIF; Peptide reported in US20110300149, SEQ ID NO:32) [compound 2165] |  | 92 | 
8 | 35 (GTPGPRNVQCRPTQVQLSAISTLYLAAALKNYQTLE; GFR-binding peptide) [compound 35] | 28 |  | 
9 | 2159 (PIIYYVGRNVRVEQLSNMVVRA; Peptide reported in US5436228, SEQ ID NO:14) [compound 2159] |  | 92 | 
10 | 2195 (MALPQPRGSSLSKAPVVVAPCMALKRVNIRSIVFEVLKTMNQNCIHETPN; Peptide reported in US20130333061, SEQ ID NO:158498) [compound 2195] |  | 82 | 
11 | 2184 (SATSRLALSDVPAELAA; Peptide reported in WO2013040142, SEQ ID NO:729730) [compound 2184] |  | 98 | 
12 | 2267 (ASASPSSVSQDLRSVKVAKVIGKTPKIKEVQVMIVKSSKSS; GFR-binding peptide) [compound 2267] |  |  | STRO-1 expression (%) [2]: 34%
13 | 2263 (ASASPSSAPVDLKPLSMLYVIGKTPKIDHHKDMIVEESKSS; GFR-binding peptide) [compound 2263] |  |  | STRO-1 expression (%) [2]: 16%
14 | 2198 (APTKLNAISVLYFDDSSNVILKKYRNMIVKS; Peptide reported in US20120244575, SEQ ID NO:4530) [compound 2198] |  | 84 | 
15 | 7 (CTVPKPXXAPTQLSPISVLYKDDSSNVILKYHYNMVVRAXGXH; GFR-binding peptide; MOD_RES (7), (8), (40), (42): Xaa is C or S) [compound 7] | 18 |  | 
16 | 11 (CPKPSSAPTQLNAISMLYFGGGGGGGLKKYRNMVVRA; GFR-binding peptide) [compound 11] | 31 |  | 
17 | 2253 (VPQQQEPLTTLYYDEYDKVVEQLSNQQVKS; GFR-binding peptide) [compound 2253] |  |  | STRO-1 expression (%) [2]: 18%
18 | 46 (CPARLSPISLLYIDAANNVVYKQYEDM; GFR-binding peptide) [compound 46] | 19 |  | 
19 | 2266 (RVPSTSSAPVKTSNITMQIMDNGRVLLLGEMSMIVEESGSL; GFR-binding peptide) [compound 2266] |  |  | STRO-1 expression (%) [2]: 22%
20 | 25 (GTPGPAPTQLSPISVLYKDDSSNVILKYHY; GFR-binding peptide) [compound 25] | 23 |  | 
21 | 16 (CKASSVPTELSPISTLYKDENEKVVLKYHYDMVVEGSGSR; not fully specified; ends and bridges not checked) [compound 16] | 18 |  | 

Row | Substance | STRO-1 expression (%) [1] [%] | STRO-1 expression (%) [3] [%] | further results
22 | 44 (CAAPASSSVPARLSPISILYIDAANNVVYKQYEDMVVE; not fully specified; ends and bridges not checked) [compound 44] | 27 |  | 
23 | 2203 (TCCVPELSAISMLYLDEN; Peptide reported in US5496552, SEQ ID NO:5) [compound 2203] |  | 84 | 
24 | 2170 (NPGASASPCCVSQDLEPLPIL; Peptide reported in JP06025288, SEQ ID NO:8) [compound 2170] |  | 86 | 
25 | 15 (CASSAVSQELSAISMLYLGGGLKNYQDM; GFR-binding peptide) [compound 15] | 21 |  | 
26 | 2249 (TPTSSSPINTLYFDDMGVPTYGKIPSSVVD; GFR-binding peptide) [compound 2249] |  |  | STRO-1 expression (%) [2]: 25%
27 | 48 (CVPQRLSPISILYIDAANNVVYKQYE; GFR-binding peptide) [compound 48] | 18 |  | 
28 | 2256 (VPTDDSATSTLYYDKGVVTYLRKHRDDEHS; GFR-binding peptide) [compound 2256] |  |  | STRO-1 expression (%) [2]: 27%
29 | 2177 (VPTKLEPISVLYKDDMGVPTLKYHYEGMAVSECGCR; Peptide reported in US8969040, SEQ ID NO:89) [compound 2177] |  | 81 | 
30 | 3 (CASASPSSVSQDLSAISTLYLIGKTPKILKNYQMIVKSSKSS; not fully specified; ends and bridges not checked) [compound 3] | 18 |  | 
31 | 2163 (TPTYSRPVQKAELTR; Peptide reported in US20130332133, SEQ ID NO:16645) [compound 2163] |  | 97 | 
32 | 2258 (SRVLLRPVQMRKIDKGVVTYKKATVLLEEH; GFR-binding peptide) [compound 2258] |  |  | STRO-1 expression (%) [2]: 21%
33 | 2191 (ANINKDRDNVPAATSSLSKAYNP; Peptide reported in WO2013040142, SEQ ID NO:2326359) [compound 2191] |  | 92 | 
34 | 2209 (MRTESTPTTASAISYECLWSPPSNEAAKLHFDS; Peptide reported in US20070083334, SEQ ID NO:966410) [compound 2209] |  | 94 | 
35 | 2212 (CCAPTQLSAISVLYFDDSSNVILKKYRNMVVRACGCR; Comparative sequence) [compound 2212] |  | 82 | 
36 | 2206 (CIPKPSSAPTELSAISMLYL; Peptide reported in WO2009151288, SEQ ID NO:2) [compound 2206] |  | 83 | 
37 | 2246 (APTGGSATSMLYYDKGVVTYLRKHRGGVVK; GFR-binding peptide) [compound 2246] |  |  | STRO-1 expression (%) [2]: 23%
38 | 2164 (HIRSTTSSYVSLKSNITNRTIQTPTYSYT; Peptide reported in US20120216318, SEQ ID NO:347659) [compound 2164] |  | 98 | 
39 | 2193 (DKPEESSSTPTHAQCICSSLSEAIVSSVLSTRLVLSQISLTRAKRAFE; Peptide reported in US20130333061, SEQ ID NO:139889) [compound 2193] |  | 87 | 
40 | 30 (GTPGPKASSVPTELSPISTLYKDENEKVVLKYHYDM; GFR-binding peptide) [compound 30] | 18 |  | 
41 | 2204 (KIPKPSSAPTELSAISMLC; Peptide reported in WO2009151288, SEQ ID NO:6) [compound 2204] |  | 82 | 
